# Several values for one entry are separate records, joined by “and”; a condition that tells them apart may be missing. Equal values may be shown once.
# Tests used:
# [1] = Tissue and blood metabolites of rats after acute AICAR injection; type: in vivo, rat; settings: AICAR 1 mg/g s.c., 60 minutes following injection, mean ± SEM n=7
# Text: (§1) All procedures were approved by the Institutional Animal Care and Use Committee. Male Sprague-Dawley rats weighing 197±5 grams (Sasco, Wilmington, Mass. 01887) were housed in individual cages in a temperature (22-25 C.) and light-controlled (12:12-h light-dark cycle) room and were given food (Harlan Teklad rodent diet, Madison, Wis.) and water ad libitum. To determine acute in vivo effects of AICAR, a jugular catheter was installed and exteriorized on the back of the neck three days prior to the day of the experiment. This catheter was implanted for the purpose of allowing rapid anesthesia of the rat and rapid blood and tissue collection. Rats were then given AICAR (1 mg/g body weight) subcutaneously in sterile 0.9% NaCl or were given 0.9% NaCl (n=7 in each group). One hour following the subcutaneous injection of AICAR, rats were anesthetized by intravenous injection of pentobarbital (4.8 mg/100 g body weight). The epitrochlearis and gastrocnemius/plantaris muscles were quickly removed and rapidly frozen with stainless steel clamps at liquid nitrogen temperature. Blood was collected via the abdominal aorta and a perchloric acid extract was prepared (0.5 ml blood to 2.0 ml 10% HClO4), neutralized and utilized for analysis of glucose and lactate.
# (§2) Muscles from rats killed 1 hour following injection of AICAR or saline were analyzed for AMPK, citrate-dependence of acetyl-CoA carboxylase, malonyl-CoA, glycogen, ZMP, ZTP, ATP, and ADP. Hassid, W Z. & S. Abraham Methods Enzymol. 3:35-36 (1957); McGarry, J. D. et al. J. Biol. Chem. 253:[…] (1978). Blood glucose and lactate were measured by enzymatic techniques. Bergmeyer, H. U., et al. D-Glucose determination with hexokinase and glucose-phosphate dehydrogenase. In: Methods of Enzymatic Analysis, edited by H. U. Bergmeyer. New York: Academic, 1196-1201 (1974); Gutmann I., & A. W. Wahlefeld. L-(+)-Lactate. Determination with lactate dehydrogenase and NAD. In: Methods of Enzymatic Analysis, edited by H. U. Bergmeyer. New York: Academic, 1464-1468 (1974).
# AMPK [2] = test: AMPK activity in muscles of rats following AICAR injection; type: in vivo, rat; settings: for AMPK activity increase vs saline: 1 hour following AICAR 1 mg/g injection
# Text: as §1, §2
# Referring to FIG. 1, the AMPK activity in epitrochlearis and gastrocnemius/plantaris muscles of rats 1 hour following injection with 1 mg/g body weight AICAR or with saline is shown. Values are means ±SEM. […] AMPK activity was increased 2.4 fold in gastrocnemius/plantaris muscles and 4 fold in the epitrochlearis muscles 1 hour following the AICAR injection.
# acetyl-CoA carboxylase = test: Citrate dependence of acetyl-CoA carboxylase in muscles of AICAR-injected rats; type: in vivo, rat; settings: 1 hour following AICAR 1 mg/g
# Text: as §1
# Muscles from rats killed 1 hour following injection of AICAR or saline were analyzed for AMPK, citrate-dependence of acetyl-CoA carboxylase, malonyl-CoA, glycogen, ZMP, ZTP, ATP, and ADP. Hassid, W Z. & S. Abraham Methods Enzymol. […] Blood glucose and lactate were measured by enzymatic techniques. […]
# Referring to FIG. 2, the citrate dependence of acetyl-CoA carboxylase in gastrocnemius/plantaris muscles of rats 1 hour following injection with AICAR (1 mg/g body weight) or saline is illustrated. Standard errors were determined but are not shown. […] Because of the limited amount of tissue, the entire citrate activation curve could not be determined for epitrochlearis muscle, but the activity of ACC at a physiological concentration of citrate (0.2 mM) was reduced from 0.50±0.10 nmol/g/min to 0.10±0.03 nmol/g/min.
# [3] = Preliminary time course of muscle ZMP after AICAR injection; type: in vivo, rat; settings: AICAR 1 mg/g s.c., n=3, preliminary experiments
# Method: (§3) To determine the effect of chronic activation of AMPK, rats were injected (between 8 and 10 am.) subcutaneously with AICAR (1 mg/g body weight) or saline vehicle for five days in succession. This dose was shown in preliminary experiments to increase ZMP levels in the muscle to 0.57±0.06 μmol/g after 15 min, to 0.79±0.06 μmol/g after 60 min, to 0.69±0.06 μmol/g after 90 min, and to 0.60±0.06 μmol/g after 120 minutes (n=3 at each time point). Beginning with the first injection, controls were pair fed with AICAR-injected rats. Saline injected controls ate 17±1 g and AICAR injected rats ate 18±1 g of food during the 24 hour period prior to blood and tissue collection. Rats were anesthetized by intraperitoneal injection of pentobarbital (22-25 hrs following the last AICAR injection) and epitrochlearis, and gastrocnemius/plantaris muscles were collected and frozen as described above. Muscles were kept under liquid nitrogen until analyzed.
# GLUT4 = test: Total GLUT4 protein (Western blot) in muscles after chronic AICAR injection; type: in vivo, rat
# Method: as §3, with “This” for “To determine the effect of chronic activation of AMPK, rats were injected (between 8 and 10 am.) subcutaneously with AICAR (1 mg/g body weight) or saline vehicle for five days in succession. This”
# Muscles from rats killed 22-25 hours following the fifth AICAR injection were analyzed for glycogen and GLUT4. For GLUT4 measurement muscle was ground to powder under liquid nitrogen. See Etgen, G. J., et al. Am. J. Physiol. […] Proteins of these homogenates were separated by SDS-PAGE using 10% resolving gels (Tris-HCl ready gels, BIO-RAD, Hercules, Calif.). […] Relative amounts of GLUT4 were then quantified using a Hewlett Packard ScanJet 6200C and SigmaGel software (SPSS, Inc, Chicago, Ill.). Total intensity of GLUT4 spots on the developed hyperfilm was expressed as a fraction of intensity shown by a GLUT4 standard run on the same gel. […]
# hexokinase = test: Hexokinase activity in muscles after 5 days of AICAR injections; type: in vivo, rat; settings: 5 days AICAR 1 mg/g/d, both epitrochlearis and gastrocnemius/plantaris, p<0.001
# Method: as §3
# Hexokinase activity was determined spectrophotometrically at 30 C on 700×g supernatants of the same homogenate as was used for GLUT4 measurement Uyeda, K. & E. Racker, J Biol Chem 240:4682-4688 (1965).
# [4] = Muscle glycogen and food intake after five daily AICAR injections; type: in vivo, rat; settings: 24 hrs following the last of five daily AICAR injections; control 43±2
# Method: as §3, with “Rats were anesthetized by intraperitoneal injection of pentobarbital (22-25 hrs following the last AICAR injection) and epitrochlearis, and gastrocnemius/plantaris muscles were collected and frozen as described above.” left out
# Muscles from rats killed 22-25 hours following the fifth AICAR injection were analyzed for glycogen and GLUT4. […] Proteins of these homogenates were separated by SDS-PAGE using 10% resolving gels (Tris-HCl ready gels, BIO-RAD, Hercules, Calif.). […] Relative amounts of GLUT4 were then quantified using a Hewlett Packard ScanJet 6200C and SigmaGel software (SPSS, Inc, Chicago, Ill.). Total intensity of GLUT4 spots on the developed hyperfilm was expressed as a fraction of intensity shown by a GLUT4 standard run on the same gel. […]
# [5] = Tolerability of daily AICAR injections; type: in vivo, rat; settings: rats 197±5 grams, 1 mg/g body weight daily
# Method: ATP and ADP were not influenced by the injection with AICAR. ZTP increased from non-detectable levels to 1.2 μmol/g. […] Muscle glycogen and liver glycogen were not acutely influenced 60 minutes following a single injection of AICAR.
# [6] = AICAR 0.25 mg/g body weight; normal (C57/BJ6), insulin deficient diabetic (C57/BJ6STZ) and insulin resistant diabetic (KKAy) mice; cited from earlier work
# AMPK [7] = settings: analogues of 5'-AMP; cited from earlier work
# [8] = resting rats injected with AICAR
compound,measurement,setting,value
"NC(=O)c1ncn([C@@H]2O[C@H](CO)[C@@H](O)[C@H]2O)c1N [AICAR, 5-aminoimidazole-4-carboxamide ribonucleoside]",Muscle ADP,[1]; gastrocnemius/plantaris,0.97 ± 0.02 µmol/g
same,Muscle ATP,[1]; gastrocnemius/plantaris,7.6 ± 0.1 µmol/g
same,Muscle Glycogen,[1]; gastrocnemius/plantaris,44 ± 4 µmol/g
same,Muscle Malonyl-CoA,[1]; gastrocnemius/plantaris,0.6 ± 0.1 nmol/g
same,Muscle ZMP,[1]; gastrocnemius/plantaris,0.91 ± 0.02 µmol/g
same,Muscle ZTP,[1]; gastrocnemius/plantaris,1.2 µmol/g and 1.18 ± 0.09 µmol/g
same,Blodd Glucose,[1],5.6 ± 0.6 mM
same,Blood Lactate,[1],6.8 ± 0.5 mM
same,Liver Glycogen,[1],344 ± 44 µmol/g
same,AMPK activity increase vs saline,AMPK [2]; epitrochlearis muscles,4 fold
same,AMPK activity increase vs saline,AMPK [2]; gastrocnemius/plantaris muscles,2.4 fold
same,Duration of increase in muscle AMPK activity,AMPK [2]; [8],at least two
same,Time to increase in muscle AMPK activity after injection,AMPK [2]; [8],≤ 15 min
same,Activity of ACC at physiological citrate (0.2 mM),"acetyl-CoA carboxylase; epitrochlearis, saline 0.50±0.10",0.10±0.03 nmol/g/min
same,ACC citrate activation constant (Ka),"acetyl-CoA carboxylase; gastrocnemius/plantaris, saline 3.1±0.1",13.0 ± 0.3 mM
same,ACC maximal velocity (Vmax) as a function of citrate concentration,"acetyl-CoA carboxylase; gastrocnemius/plantaris, saline 60.1±1.3",32.4 ± 1.3 nmol/g/min
same,ZMP level in muscle,[3]; after 15 min,0.57 ± 0.06 µmol/g
same,ZMP level in muscle,[3]; after 60 min,0.79 ± 0.06 µmol/g
same,ZMP level in muscle,[3]; after 90 min,0.69 ± 0.06 µmol/g
same,ZMP level in muscle,[3]; after 120 minutes,0.60 ± 0.06 µmol/g
same,GLUT4 in epitrochlearis and gastrocnemius/plantaris,"GLUT4; AICAR 1 mg/g/d for five days, vs saline, p<0.001 epitrochlearis, p<0.01 gastrocnemius",marked increases
same,Total GLUT4,"GLUT4; larger rats (350-450 grams), AICAR 0.5 mg/g body weight, n=5/group, control 0.32±0.05, preliminary experiments",0.76±0.08 arbitrary units
same,Hexokinase activity increase over control values,hexokinase,approximately 2.8 fold
same,Gastrocnemius/plantaris glycogen,[4],87±4 μmol glucose units/g
same,Tolerance of injections,[5],no apparent discomfort
same,Duration of acute decrease in blood glucose,[6],4 to 6 h
Nc1ncnc2c([C@@H]3O[C@H](COP(=O)(O)O)[C@@H](O)[C@H]3O)[nH]nc12 [Formycin A 5′-monophosphate],Potency of AMPK activation in vitro,AMPK [7],less potently
NC(=O)c1ncn([C@@H]2O[C@H](COP(=O)(O)O)[C@@H](O)[C@H]2O)c1N [ZMP],Potency of AMPK activation in vitro,AMPK [7],less potently
Nc1ncnc2c1ncn2[C@@H]1O[C@H](COP(N)(=O)O)[C@@H](O)[C@H]1O [adenosine 5′-phosphoramidate],Potency of AMPK activation in vitro,AMPK [7],more potently
Nc1ncnc2c1ncn2[C@@H]1O[C@H](COP(O)(O)=S)[C@@H](O)[C@H]1O [adenosine-5′-thiomonophosphate],Potency of AMPK activation in vitro,AMPK [7],more potently

# — patent US20030212013A1, “Use of amp kinase activators for treatment type 2 diabetes and insulin resistance” (priority 2002, published 2003)
